The subject of test [1] is Pmm-2 F119L homozygous animals. The test is described as follows: Chemical stressor exposure of Pmm-2 mutant worms in liquid culture. Format: in vivo, nematode (worms). Conditions: increasing concentrations. The source says:
Because an underlying defect in glycosylation may be manifested when subjected to external chemical stressors, Pmm-2 F119L homozygous animals were subjected to Tunicamycin and Bortezomib drug exposures. Tunicamycin is an inhibitor of N-linked glycosylation and Bortezomib (Bzb) is an irreversible inhibitor of the proteasome. It was contemplated that either or both drugs would affect the Pmm-2 mutants differently compared to wild type (“WT”).

Test [2] concerns SEC53 variant (pmm2 mutant) yeast. Kind of test: Yeast growth rescue of SEC53 variant strains (validation of drug screen hits). Format: cell-based. Conditions: for rescue of growth of SEC53 alleles: haploid and heterozygous diploid cells, dose response; for growth rescue/improvement: maximum dose/effect. As to the method: All strains used herein are in S288c background. Strains were grown in Synthetic Complete (“SC”) or SC drop out media (Sunrise)+2% dextrose at 30° C. unless otherwise noted. Standard genetic procedures of transformation and tetrad analysis were followed to construct strains. SEC53 rescue plasmid (pPL1) was generated by cloning the SEC53 promoter, open reading frame, and terminator sequences into the episomal pRS316 containing the URA3 selectable marker. SEC53 variants were generated by cloning the relevant promoter, GFP or SEC53 gene, and CYC1 terminator sequences into an integrating plasmid containing the LEU2 selectable marker and integrated at the SwaI restriction site into the HO locus. For PMM2 variants, the SEC53 ORF was replaced with a codon-optimized PMM2. Plasmids were generated by Next Interactions or GenScript. Strains were generated by Next Interactions or well-known techniques.
Cells from plates were resuspended in SC media to OD600=1.0, then serial diluted into 50 μL SC+FOA media in 384-well plates at 10^−1, 10^−2, and 10^−3. Plates were incubated at 30° C. and absorbance reading at […] were measured by a plate reader (Molecular Devices SpectraMax M3) at the indicated time points. Plates were vortexed briefly to resuspend cells prior to plate readings. 5-floroortic acid was purchased from US Biological and used at a concentration of 1 mg/L.
125 nL of compounds or DMSO were dispensed into 384-well plates using the Echo acoustic dispenser (LabCyte) to achieve a final concentration of 25 μM. 50 μL of 10^−2 dilution of an OD600=1.0 or 0.5 yeast cell suspensions were dispensed into the 384-well plates containing compounds or DMSO with a MultiFlo automated dispenser (Biotek). Plates were covered and incubated at 30° C. for 16-21 hours until OD600 reaches ˜0.8. Plates were vortexed briefly to resuspend cells prior to reading.
MicroSource Spectrum compounds were reordered from MicroSource Discovery Systems and resuspended in DMSO. 5-125 nL compounds or DMSO were dispensed into 384-well plates and 50 μL of yeast cell suspensions or media were dispensed by multichannel pipettes to achieve the desired concentration. Plates were covered and incubated at 30° C. for 16-23 hours until OD600 reaches ˜0.8. Plates were vortexed briefly to resuspend cells prior to plate readings.
pACT1-F126L, pSEC53-V238M, and pSEC53-F126L haploids and pACT1-F126L/pACT1-R148H, pSEC53-V238M/pSEC53-R148H, and pSEC53-F126L/pSEC53-R148H heterozygous diploids were advanced to a high-throughput drug screen. Screening was done in a 2,560 compound MicroSource Spectrum library collection consisting of FDA approved drugs, bioactive tool compounds, and natural products. Each strain was screened in duplicate and in 384-well plates, with each plate containing 32 wells of the negative control (no drugs) and 24 wells of the positive controls (wild type cells). […] Additionally, there is good correlation between replicates (correlation >0.4 for all panels). With a Z-score cutoff of 2.0, we initially identified six compounds that may be promising and their ability to rescue growth is conserved between the haploid and diploid strains.
These initial hits were further studied for validation. […] At the maximum dose tested, alpha-cyano-4-hydroxycinnamic acid (Compound 1) rescues the F126L allele by 17.7% in haploid and 24.5% in diploid cells.

Another test deals with PMM2. The test is described as follows: PMM2 enzymatic assay on lysates of compound-treated fibroblasts. Format: cell-based, human. Conditions: for effect on PMM2 enzymatic activity: human fibroblasts GM20942 (F119L/R148H as printed), 10 and 15 μM, 24 and 48 hours; for PMM2 enzyme activity: above described cell models. As to the method: Cells (WT and PMM2 (GM20942-R141H/F119L) compound heterozygous fibroblasts) were seeded at 45 cells/μL (48 hours) and 60 cells/μL (24 hours) in 96 well plates. Compounds were added while seeding cells. The cells were incubated with the tested compounds for 24 and 48 hours (2 different plates, at 10 and 15 μM). Cells were washed twice with phosphate buffer solution. Cell extracts were prepared by adding 10 μL homogenization buffer (20 mM Hepes, 25 mM KCl, 1 mM dithiothreitol, 10 μg/mL each leupeptin and antipain) into each well. The plate was frozen at −80° C. and thawed (this step was repeated two times). Contents of the well were then transferred to the next well, frozen, and thawed. The previous two steps were repeated again to obtain 3× protein. The plate was centrifuged at 4000 rpm for 10 min. 1 μL of sample was taken for Qubit protein quantification, and assay buffer was added into these wells. The plate was incubated at 37° C., and readings were taken every 30 mins.
PMM2 enzymatic activities were assayed spectrophotometrically at 340 nm by the reduction of NADP+ to NADPH in a reaction mixture incubated at 30° C. for 60 mins in a 96-well plate. Cell lysates were added to 200 μL volume in the following reaction: 50 mM HEPES, pH 7.1, 5 mM MgCl2, 0.5 mM NADP+, 10 μg/mL yeast glucose-6-phosphate dehydrogenase, 20 μM glucose 1,6-bisphosphate, 200 μM mannose 1-phosphate, 10 μg/mL phosphoglucose isomerase, and […]. Glucose 1,6-bisphosphate was used as an activator of PMM2 activity. NADPH formation was calculated from absorbance at 340 nm using the Beer's Law (absorbance=εLc).
A PMM2 enzymatic assay was performed to determine whether the expression level of the variants correlate with the enzymatic activity in the cell. To do this, phosphomannose mutase (PMM) activity was assayed by measuring the reduction of NADP+ to NADPH spectrophotometrically at 340 nm with a plate reader according to methods known in the art. This is achieved by a series of four reactions shown in Scheme 1.
Mannose-1-phosphate and NADP are provided as substrates for the reactions along with phosphomannose isomerase, phosphoglucose isomerase, glucose-6-phosphoate dehydrogenase, and PMM2 from the protein lysate. Additionally, glucose 1,6-bisphosphate is used as an activator of PMM2 activity.
To determine whether these compounds rescue growth by increasing PMM2 enzymatic activity, human fibroblast cells (GM20942) containing the F119L/R148H heterozygous mutations and wild type fibroblast cells were treated with each compound. The cell lysates were subjected to the PMM2 enzymatic reaction.

Setting [3] is: pACT1-F126L/R148H heterozygous diploid cells.

Data on eight compounds can be found in patent US11160794B2, “Methods for treating congenital disorders of glycosylation” (Maggie's Pearl, LLC, priority 2018, dated 2021).

Structures can show the parent of a compound that is named as a salt.

As to `CC(C)C[C@H](NC(=O)[C@H](Cc1ccccc1)NC(=O)c1cnccn1)B(O)O` [Bzb, Bortezomib], in test [1], the “growth of Pmm-2 mutants compared to wild type under drug exposure” value was “delayed growth”.

For the compound `N#C/C(=C\c1ccc(O)cc1)C(=O)O` [Compound 1, α-cyano-4-hydroxycinnamic acid], the “rescue of growth of SEC53 alleles” value in test [2] is “consistent and dose-dependent rescues”. Moreover, the growth rescue/improvement in test [2] (pACT1-F126L haploid cells) came to 17.7%; in test [2] (setting [3]), 24.5%. In the test with PMM2, the “effect on PMM2 enzymatic activity” value is “rescues the enzymatic activity”.

With `Cc1ccc(C(=O)Nc2ccc(S(=O)(=O)O)c3cc(S(=O)(=O)O)cc(S(=O)(=O)O)c23)cc1NC(=O)c1cccc(NC(=O)Nc2cccc(C(=O)Nc3cc(C(=O)Nc4ccc(S(=O)(=O)O)c5cc(S(=O)(=O)O)cc(S(=O)(=O)O)c45)ccc3C)c2)c1` [Compound 3, 8-[[4-methyl-3-[[3-[[3-[[2-methyl-5-[(4,6,8-trisulfonaphthalen-1-yl)carbamoyl]phenyl]carbamoyl]phenyl]carbamoylamino]benzoyl]amino]benzoyl]amino]naphth alene-1,3,5-trisulfonic acid], in test [2], the “rescue of growth of SEC53 alleles” value is “consistent and dose-dependent rescues”.

`NCCS` [cysteamine hydrochloride, reference compound]: the “rescue of growth of SEC53 alleles” value in test [2] is “does not rescue at any dose”.

`CNc1ccccc1C(=O)N1CCc2c([nH]c3ccccc23)C1=O` [rhetsinine, Rhetsinine]: the PMM2 enzyme activity entry with PMM2 is recorded as “increase PMM2 enzyme activity”.

As to `Cc1ccc(C(=O)Nc2ccc(S(=O)(=O)O)c3cc(S(=O)(=O)O)cc(S(=O)(=O)O)c23)cc1NC(=O)c1cccc(NC(=O)Nc2cccc(C(=O)Nc3cc(C(=O)Nc4ccc(S(=O)(=O)O)c5cc(S(=O)(=O)O)cc(S(=O)(=O)O)c45)ccc3C)c2)c1` [suramin hexasodium], the growth rescue/improvement in test [2] (pACT1-F126L haploid cells) is 6.7%; in test [2] (setting [3]), 22.6%. The growth improvement came to 24.5% in test [2] (pSEC53-F126L haploid cells), 47.4% in test [2] (pSEC53-F126L/R148H heterozygous diploid cells), 16.1% in test [2] (pSEC53-V238M haploid cells) and 38.9% in test [2] (pSEC53-V238M/R148H heterozygous diploid cells). In addition, in the test with PMM2, the “effect on PMM2 enzymatic activity” value was “no discernible effect”.

Take Epalrestat [reference compound]: the “rescue of yeast growth defect” value in test [2] (above described cell models) is “rescued yeast growth defect”. Also, the PMM2 enzyme activity result with PMM2 is reported as “increase PMM2 enzyme activity”.

On to Tunicamycin, for which the “growth of Pmm-2 mutants compared to wild type under drug exposure” value in test [1] is “no major differences in growth”.
